From paper PMC12354831 (Cell Death Discovery, 2025)
“And” between values parts separate entries of the source, which are not always exact repeats. Equal entries are not always repeated. Where two headings read alike, the source gives them in different places.

Experiments:
GLUT3 [1] = target: T1, GLUT3 (Homo sapiens, UniProt P11169); test: Cellular uptake of TMZ and CAPE by LC-MS/MS, GLUT3 OE U251-MG cells; assay type: in vitro ADME; details: for decrease of extracellular drug concentration: GLUT3 OE U251-MG cells, remaining extracellular drug after uptake; for increase of drug uptake by GLUT3 OE: U251-MG cells, 200 μM drug, 37 °C, 15 min, intracellular level vs control
T1 construct: expressed in transfected cells
T1 sequence (P11169 1-496): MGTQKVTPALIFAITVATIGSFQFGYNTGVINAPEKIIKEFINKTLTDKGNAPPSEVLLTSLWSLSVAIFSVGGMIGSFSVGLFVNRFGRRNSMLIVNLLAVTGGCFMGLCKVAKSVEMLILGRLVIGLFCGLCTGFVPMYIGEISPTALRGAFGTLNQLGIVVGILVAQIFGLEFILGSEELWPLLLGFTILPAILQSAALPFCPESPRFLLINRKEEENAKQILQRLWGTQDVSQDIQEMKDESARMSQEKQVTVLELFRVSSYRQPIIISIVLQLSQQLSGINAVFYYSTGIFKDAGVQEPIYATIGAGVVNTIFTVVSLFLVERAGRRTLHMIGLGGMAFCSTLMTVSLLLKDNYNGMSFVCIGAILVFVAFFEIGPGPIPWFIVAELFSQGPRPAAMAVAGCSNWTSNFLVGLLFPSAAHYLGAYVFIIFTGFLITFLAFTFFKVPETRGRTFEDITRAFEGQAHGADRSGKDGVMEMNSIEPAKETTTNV
Procedure: A total of 6 × 10^6 cells were seeded into each well of a 6 cm Petri dish and cultured at 37 °C in a humidified atmosphere containing 5% CO2 for 8 h. The cells were then washed twice with PBS (137 mM NaCl, 2.7 mM KCl, 10 mM Na2HPO4, 1.8 mM KH2PO4, pH 7.4) and incubated in transport buffer (140 mM NaCl, 5 mM KCl, 2 mM MgCl2, 2 mM CaCl2, 30 mM Tris-HCl, pH 7.4) for 15 min at 37 °C. […] Cell supernatants were collected and stored at 4 °C for subsequent extraction. The harvested cells were washed three times with PBS and extracted with 500 µL of 80% methanol for 30 min at −80 °C. The cell lysate was then centrifuged at 14,000 × g for 5 min at 4 °C, followed by 2 min of sonication. The supernatant was transferred to a new centrifuge tube. For LC-MS/MS analysis, the cell supernatants and cell lysates were diluted at a specific ratio. A total of 100 µL of each sample was mixed with 100 µL of acetonitrile (or standard reagent) and 300 µL of internal standard solution (^2H3-TMZ 100 ng/mL and ^2H11-CAPE 20 ng/mL dissolved in acetonitrile). […] Quality control (QC) samples were prepared and analyzed alongside the experimental samples to monitor the stability and repeatability of the instrument. QC samples were inserted regularly and analyzed every 6–12 samples. Each experiment was repeated 5–6 times.
LC-MS/MS analyses were performed using a high-performance liquid chromatography (HPLC) system (Shimadzu, LC-20A) coupled to a […] (ABSciex, API4000 QTRAP). The samples were separated on a 2.1 × 100 mm ACQUITY Premier BEH C18 1.7 µm VanGuard™ FIT column (Waters, Ireland). The mobile phases consisted of: Mobile phase A (0.1% formic acid and 2.5 mM ammonium acetate in water) and Mobile phase B (0.1% formic acid and 2.5 mM ammonium acetate in acetonitrile). Gradient elution was employed, with the flow rates and gradient conditions detailed in Table S2.
The mass spectrometry conditions were as follows: Ion source: electrospray ionization (ESI); Detection mode: positive ion mode; Scanning method: multiple reaction monitoring (MRM); Spray voltage (IS): 5500 V; Ion source temperature (TEM): 555 °C; Gas curtain pressure (CUR): 25 psi; Collision activation dissociation (CAD): MEDIUM; Nebulizer gas pressure (GS1): 55 psi; Auxiliary gas pressure (GS2): 55 psi.

GLUT3 [2] = target: T1, GLUT3; test: 2-NBDG glucose uptake competition assay in GLUT3-OE vs vector control U251-MG cells; assay type: cell-based; details: for reduction in 2-NBDG uptake: GLUT3 OE U251-MG cells, 100 μM 2-NBDG
Procedure: GBM cells were seeded into 96-well plates at a density of 4 × 10^4 cells per well and allowed to adhere for 24 h. After 6–12 h, the culture medium (containing 10% fetal bovine serum, FBS) was removed, and the cells were incubated in 100 µL of glucose-free DMEM medium for 1 h at 37 °C in a humidified atmosphere containing 5% CO2. The glucose-free medium was then replaced with 100 µL of DMEM containing 100 µM 2-NBDG, and the cells were incubated for an additional 30 min at 37 °C. Following incubation, the cells were washed three times with cold PBS to remove unincorporated 2-NBDG. The fluorescence intensity was immediately measured using a Synergy™ H1 automatic microplate reader with excitation and emission wavelengths set at 485 nm and 528 nm, respectively.
After 30 min of incubation at 37 °C, the cells were washed three times with cold PBS, and the fluorescence intensity was measured as described above.

GLUT3 [3] = target: T1, GLUT3; test: Microscale thermophoresis (MST) binding assay, GLUT3-GFP in cell lysates
Procedure: Data from three independent measurements were analyzed using MO. Affinity Analysis software (version 2.1.3, NanoTemper Technologies).

[4] = across the tested GBM cell lines (U343-MG, U251-MG), read-out: Kd values

Row | Structure (SMILES) | decrease of extracellular drug concentration (GLUT3 [1]) | increase of drug uptake by GLUT3 OE (GLUT3 [1]) | reduction in 2-NBDG uptake (GLUT3 [2]; 1 μM drug) | reduction in 2-NBDG uptake (GLUT3 [2]; 10 μM drug) | reduction in 2-NBDG uptake (GLUT3 [2]; 100 μM drug) | Kd (GLUT3 [3]; U251-MG lysate, GLUT3-GFP, pH 6.8, read-out: Kd) | Kd (GLUT3 [3]; [4]) | effect on glucose (2-NBDG) uptake in control cells (GLUT3 [2]; vector control U251-MG cells, until concentration reached 100 μM)
1 | CCCCCOC(=O)Nc1nc(=O)n([C@@H]2O[C@H](C)[C@@H](O)[C@H]2O)cc1F [CAPE, capecitabine] | 5.4% | ~ 70% | 39.4% | 51.5% | 69.3% | 1800 ± 1100 nM | 1000 to 3000 nM and 900 to 3500 nM | –
2 | Cn1nnc2c(C(N)=O)ncn2c1=O [TMZ] | 7.7% | ~ 70% | 36.8% | 47.2% | 70.1% | – | 300 to 700 nM | minimally affected
